Test systems include HS 578T breast; UACC-62 melanoma; MOLT-4 leukemia; K-562 leukemia; T-47D breast; MCF7 breast; CCRF-CEM leukemia; UACC-257 melanoma; DU-145 prostate; ACHN renal.
Assay in all cases: NCI tumour cell line growth inhibition, 48 h

The record followed here is PubChem BioAssay (NCI).

Values joined by “and” are separate entries in the source; they are usually repeats but may differ in a detail not shown here. Equal entries are not always repeated.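 How tested: cells in 96-well plates exposed to compound for 48 hours at five concentrations. The concentration for 50% growth inhibition is given as GI50. Definition used: TGI = concentration required for complete inhibition of growth.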

For the compound `COC(=O)c1c2c(c(C)[n+]([O-])c1C)C(=O)C(NCc1ccc(Br)cc1)=CC2=O`, the GI50 was 2.64 µM with HS 578T breast; 1.17 µM in the assay on UACC-62 melanoma; 1.97 µM in the assay on MOLT-4 leukemia; 2.38 µM in the assay on K-562 leukemia; 1.52 µM in the assay with T-47D breast; 1.33 µM in the assay with MCF7 breast. In addition, the TGI was 9.94 µM with HS 578T breast; 2.69 µM with UACC-62 melanoma; 4.74 µM with MOLT-4 leukemia; above 100 µM in the assay with K-562 leukemia; 4.06 µM in the assay with T-47D breast; 3.21 µM with MCF7 breast.
For the compound `C=CC12CCN(CC1)C(C(O)c1ccnc3ccc(OC)cc13)C2` (configuration not stated), the GI50 was above 100 µM with HS 578T breast; above 100 µM in the assay on CCRF-CEM leukemia; 74.2 µM in the assay with UACC-257 melanoma; above 100 µM in the assay with UACC-62 melanoma; above 100 µM in the assay on DU-145 prostate; above 100 µM with MOLT-4 leukemia. In addition, the GI50 in the assay on K-562 leukemia is above 100 µM; in the assay with ACHN renal, above 100 µM; in the assay with T-47D breast, above 100 µM; in the assay with MCF7 breast, 84.3 µM. Also, the TGI in the assay with HS 578T breast, in the assay on CCRF-CEM leukemia, with UACC-257 melanoma, with UACC-62 melanoma, with DU-145 prostate and in the assay with MOLT-4 leukemia was above 100 µM in each case. In addition, the TGI with K-562 leukemia, in the assay on ACHN renal, with T-47D breast and in the assay with MCF7 breast was above 100 µM in each case.
As to `NC(=S)N/N=C/c1ncccc1O`, the TGI in the assay with HS 578T breast is 835 µM; with CCRF-CEM leukemia, 21.8 µM; with UACC-257 melanoma, 8.97 µM and 72.7 µM; in the assay with UACC-62 melanoma it was 11 µM and 9.55 µM; in the assay on DU-145 prostate, 17.1 µM and > 114 µM; in the assay with MOLT-4 leukemia it was 33.2 µM and 42.7 µM. Moreover, the TGI with K-562 leukemia is above 1000 µM; in the assay on ACHN renal, 8.54 µM and 1.38 µM; in the assay on T-47D breast, above 823 µM; with MCF7 breast it was > 37.5 µM and 183 µM. For the same compound, the GI50 was 1.15 µM with CCRF-CEM leukemia; 1.67 µM in the assay with UACC-62 melanoma; 1.46 µM and 0.77 µM in the assay on DU-145 prostate; 1.76 µM in the assay with MOLT-4 leukemia; 2.92 µM in the assay on K-562 leukemia; 0.202 µM in the assay on ACHN renal. In addition, the GI50 with MCF7 breast is 2.55 µM.
On to `NC(=O)c1cc(I)ccc1NC(=O)/C=C/c1ccccc1`, for which the GI50 is 0.364 µM with HS 578T breast; 0.36 µM in the assay on CCRF-CEM leukemia; 14.3 µM in the assay on UACC-257 melanoma; 0.457 µM with UACC-62 melanoma; 0.352 µM with DU-145 prostate; 0.539 µM with MOLT-4 leukemia. In addition, the GI50 in the assay on K-562 leukemia is 0.668 µM; with ACHN renal, 3.15 µM; in the assay on T-47D breast, 0.597 µM; with MCF7 breast, 0.403 µM. Besides, the TGI is 15.4 µM in the assay with HS 578T breast; 53.3 µM with UACC-257 melanoma; above 77.6 µM in the assay on UACC-62 melanoma; 2.97 µM in the assay with DU-145 prostate; above 100 µM in the assay with K-562 leukemia; above 47.1 µM with ACHN renal. Besides, the figures for the TGI with T-47D breast and with MCF7 breast were above 65.7 µM and above 42.6 µM, respectively.
Consider `CO[C@@H]1CC[C@]2(C)OC[C@H](C)[C@@H]3C[C@@H](C)[C@@H](OC(C)=O)[C@@H]4[C@H]3[C@@H]2O[C@H]4C[C@@]1(C)O`, for which the GI50 with HS 578T breast, in the assay on CCRF-CEM leukemia, with UACC-257 melanoma, in the assay on UACC-62 melanoma, in the assay with DU-145 prostate and in the assay on MOLT-4 leukemia was above 100 µM in each case. For the same compound, the GI50 in the assay with K-562 leukemia, in the assay with ACHN renal, in the assay on T-47D breast and in the assay with MCF7 breast was above 100 µM throughout. Further, the TGI in the assay with HS 578T breast, with CCRF-CEM leukemia, in the assay on UACC-257 melanoma, in the assay on UACC-62 melanoma, in the assay on DU-145 prostate and in the assay on MOLT-4 leukemia was above 100 µM in each case. Moreover, the TGI with K-562 leukemia, with ACHN renal, in the assay with T-47D breast and with MCF7 breast was above 100 µM throughout.
Take `COc1cc2c(cc1OCCCN1CCN(CCCOc3cc4c(cc3OC)C(=O)N3CC(F)(F)C[C@H]3C=N4)CC1)N=C[C@@H]1CC(F)(F)CN1C2=O`: the GI50 in the assay on HS 578T breast is 2.32 µM; with CCRF-CEM leukemia, 0.979 µM; in the assay with UACC-257 melanoma, 15.3 µM; in the assay on UACC-62 melanoma, 3.05 µM; in the assay on DU-145 prostate, 3.63 µM; in the assay on MOLT-4 leukemia, 2.02 µM. The GI50 in the assay with K-562 leukemia was 1.74 µM; in the assay on ACHN renal, 5.64 µM; in the assay on T-47D breast, 3.25 µM; with MCF7 breast, 2.09 µM. Moreover, the TGI in the assay on HS 578T breast was 9.55 µM; in the assay with CCRF-CEM leukemia it was 8.51 µM; in the assay with UACC-257 melanoma it was 31.6 µM; with UACC-62 melanoma it was 13.2 µM; in the assay on DU-145 prostate, 13.3 µM; in the assay with MOLT-4 leukemia it was 8.37 µM. In addition, the TGI in the assay with K-562 leukemia is above 100 µM; in the assay with ACHN renal it was 19.7 µM; in the assay on T-47D breast it was 36.9 µM; in the assay on MCF7 breast it was 20.2 µM.
As for `C[C@H](CCOc1cccc(CC(=O)O)c1)N(Cc1cccc(C(F)(F)F)c1Cl)CC(c1ccccc1)c1ccccc1`, the GI50 was 3.79 µM with HS 578T breast; 3.69 µM in the assay with CCRF-CEM leukemia; 10.2 µM with UACC-257 melanoma; 2.72 µM in the assay on UACC-62 melanoma; 7.89 µM in the assay with DU-145 prostate; 4.95 µM in the assay on MOLT-4 leukemia. In addition, the GI50 was 4.9 µM in the assay on K-562 leukemia, 5.11 µM in the assay on ACHN renal, 4.47 µM with T-47D breast and 3.53 µM with MCF7 breast. Also, the TGI in the assay with HS 578T breast stood at 20.7 µM; in the assay on CCRF-CEM leukemia it was 20.1 µM; in the assay with UACC-257 melanoma it was 25.2 µM; with UACC-62 melanoma it was 8.44 µM; in the assay with DU-145 prostate it was 20.4 µM; with MOLT-4 leukemia, 23.1 µM. Besides, the TGI in the assay with K-562 leukemia was 52.9 µM; in the assay with ACHN renal it was 17 µM; with T-47D breast, 33.6 µM; in the assay on MCF7 breast, 17.9 µM.
Take `Nc1c(C(=O)Nc2ccccn2)sc2nc3c(cc12)C(=O)CCC3`: the GI50 with HS 578T breast is 0.804 µM; in the assay with CCRF-CEM leukemia, 0.79 µM; in the assay on UACC-257 melanoma it was 69.8 µM; with UACC-62 melanoma, 0.621 µM; in the assay with DU-145 prostate, 1.98 µM; in the assay on MOLT-4 leukemia it was above 100 µM. Moreover, the GI50 is 0.463 µM in the assay with K-562 leukemia, 6.06 µM with ACHN renal, 4.89 µM with T-47D breast and 0.435 µM in the assay with MCF7 breast. Moreover, the TGI with HS 578T breast was 93.7 µM; in the assay on CCRF-CEM leukemia, above 100 µM; in the assay on UACC-257 melanoma it was above 100 µM; in the assay with UACC-62 melanoma, above 100 µM; with DU-145 prostate it was above 100 µM; in the assay with MOLT-4 leukemia, above 100 µM. In addition, the TGI with K-562 leukemia, with ACHN renal, in the assay with T-47D breast and in the assay with MCF7 breast was above 100 µM in each case.
